Data published in patent US9078949B2, “Compositions of partially deacetylated chitin derivatives” (GENIS HF., priority 2005, dated 2015).
Like-named read-outs stand apart in the source and are kept apart here.

Experiments:
[1] = Absorption of chitooligosaccharides into the blood of a human volunteer (MALDI-TOF MS, GPC, HPIEC); assay type: in vivo; conditions: for Mass calc (HPIEC homologue): blood sample (7.0 ml) after 3 weeks of ChOS consumption
Protocol: Chitooligomers composed of N-acetyl glucosamine and glucosamine were prepared by Genis, Reykjavik, Iceland. Briefly, chitin was partially deacetylated in alkali, washed and hydrolysed to oligomers by chitinase. Oligomers were ultrafiltrated, desalted and spray dried to a fine white powder. Average degree of deacetylation was 47% (FA 0.53). Analysis and quantification of oligomers and homologues were performed, using the same methods as for the blood.
A voluntary subject was consuming daily 1.8 g of ChOS (Genis ehf; S41124-1K) for a period of 4 weeks. Blood samples were collected within a period of 6 weeks. The first sample was taken before consumption of ChOS. The following 4 samples were taken weekly starting 1 week after the first consumption. Sample 6 was taken 2 weeks after stopping the consumption of ChOS. The volume of each sample was 7.0 ml. The blood samples were centrifuged for 30 min at 3000 rpm. The serum was collected. Methanol and sodium chloride were added to a final concentration of 30% methanol and 0.1 mg/ml sodium chloride followed by another centrifugation step. Samples of 500 μl were filtered through 3 kDa cut-off membranes (ultrafiltration). The supernatant was filled up for 3 times. Appropriate filtrates were pooled, the methanol was removed in vacuum, and the samples were finally lyophilised.
The lyophilised samples (app. 100 μg) were redissolved in 100 μl of methanol/water (v/v 50:50). An aliquot of the solution was mixed on the target with 2 μl of a solution of DHB in 30% aqueous ethanol ([…]). The drop was dried under a gentle stream of air. Mass spectra were recorded on a Bruker Reflex II (Daltonik, Bremen, Germany) in the positive ion mode. For ionisation, a nitrogen laser (337 nm, 3 ns pulse width, 3 Hz) was used. All spectra were measured in the reflector mode using external calibration. Monoisotopic peaks are labelled in all mass spectra.
The lyophilised samples (appr. 100 μg) were redissolved in 100 μl of methanol/deuterium oxide (v/v 50:50). A 10-fold molar excess of hexadeutero acetic anhydride was added as well as 3 drops of glacial tetradeutero acetic acid. The solution was stirred at 30° C. for 12 h. The reaction was stopped by addition of an equimolar amount of ammonia. The solutions were lyophilised and redissolved in 100 μl of ammonia. The concentration of ammonia was set to a 10-fold molar excess with respect to the moles of N-acetyl glucosamine units (GlcNAc or A). The solution was stirred at 22° C. over night. The ammonia was removed in vacuum, followed by lyophilisation of the samples. […] The concentration of potassium hydroxide was set to a 2-fold molar excess with respect to the moles of GlcNAc units. The solution was stirred for 10 h at r. t. neutralized by addition of cation exchange resin (H^+ form) followed by filtration and lyophilisation of the filtrate.
MALDI-TOF mass spectra were taken as described in Example 4. The quantification of relative signal intensities leads to the composition of homologues in the mixture.
The samples are prepared as described under Homologue determination by MALDI-TOF MS. Subsequently, a standard was added to each sample. The standard, a chitin oligomer (An), has to be of the same DP+/−1 as the analyte. A serial dilution of this standard was used. A comparison of the signal intensities of the analyte with the standard gives the concentration of the analyte. […]
Mixtures of homologues (and oligomers) obtained from the GPC separation were analysed by HPIEC. […]

Chitinase A [2] = target: T1, Chitinase A (Serratia marcescens, UniProt P07254); test: Blocking of Chitinase A activity (4-MU-A3 substrate, fluorescence); assay type: biochemical; conditions: for blocking of chitinase activity: pH 7.4
T1 sequence (P07254 24-563): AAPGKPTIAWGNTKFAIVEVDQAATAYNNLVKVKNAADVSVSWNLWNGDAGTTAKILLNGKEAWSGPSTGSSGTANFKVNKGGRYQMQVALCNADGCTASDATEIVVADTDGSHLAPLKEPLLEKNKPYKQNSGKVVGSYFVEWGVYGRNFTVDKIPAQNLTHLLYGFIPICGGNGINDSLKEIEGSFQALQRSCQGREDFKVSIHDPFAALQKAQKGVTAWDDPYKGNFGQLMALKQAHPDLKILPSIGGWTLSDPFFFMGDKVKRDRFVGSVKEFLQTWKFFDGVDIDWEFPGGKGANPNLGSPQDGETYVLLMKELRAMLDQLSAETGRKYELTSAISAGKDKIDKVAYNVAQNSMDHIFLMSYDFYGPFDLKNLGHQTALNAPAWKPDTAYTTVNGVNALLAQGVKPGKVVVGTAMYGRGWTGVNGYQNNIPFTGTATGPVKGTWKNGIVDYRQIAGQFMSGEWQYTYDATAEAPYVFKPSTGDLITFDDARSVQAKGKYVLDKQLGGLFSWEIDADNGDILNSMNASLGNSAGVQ
Protocol: Chitooligosaccharides (ChOS) (lots No. G020418 and G020218) were fractionated into homologue fractions, either by cation exchange chromatography or gel permeation chromatography or by the combination of both methods. The products were freeze dried and analysed for structure and sequence by MALDI-TOF mass spectrometry. Three other un-fractionated ChOS lots from Genis were also analysed by the same MALDI-TOF method (lots No. G040823, G050421 and G050421UF; where UF stands for ultrafiltrated through 1 kDa membrane to reduce the content of DP≦5).
A purified Chitinase A preparation from S. marcescens was used as a standard Family 18 chitinase, and 4-methylumbelliferyl-beta-D-N,N′-triacetylchitotrioside (4-MU-A3), a chitin tetramer (A4) analogue, was used as a standard chitinase substrate.
The standard Chitinase A solution was 0.5 nM (500 pM) in 0.1 mg/ml BSA, 50 mM phosphate buffer pH 7.4 (Chit-A sol.) and the substrate solution was 40 μM 4-MU-A3 in 50 mM phosphate buffer pH 7.4.
Different concentration of each pure ChOS homologue (usually 0, 25, 50, 100, 200, 400 and 800 μM) was made in the substrate buffer. For the assay, 25 μl of the Chit-A solution was mixed with 25 μl of the substrate/blocking solution, incubated at 37° C. for 10 min. The reaction was stopped with 1.95 ml 0.2 M sodium […] buffer (Na2CO3). The formation of the product, 4-Methylumbelliferone (4-MU) was read for each reaction in a Perken-Elmer LS SOB Fluorometer. The excitation wavelength was 380 nm (5 nm adjusting slit) and the emission wavelength was 460 nm (4 nm adjusting slit). Each reaction was read in triplicate. […] Affinity of each homologue was calculated as inverted IC50.
Even tough the chitinase A has an optimal activity at pH 5.5, the pH for the blocking experiments was adjusted at pH 7.4. This was done in order to free the amine groups of ChOS from protons, since earlier pilot experiments performed at pH 5.5 indicated low blocking activities of the ChOS homologues. Also this pH better resembles the physiological pH of blood and other physiological fluids, better reflecting the behaviour of the oligosaccharides in the human body.

Chitinase A [3] = target: T1, Chitinase A; test: Cleavage of oligomers by Chitinase A judged by MALDI-TOF (biostability); assay type: in vitro ADME, S. marcescens; conditions: assay conditions (pH 5.5 and pH 7.4)
[4] = target: HC gp-39 (39-kDa Human Cartilage Glycoprotein) (Homo sapiens, UniProt P36222); test: Binding to HC gp-39 by intrinsic tryptophan fluorescence
Chain of HC gp-39 (39-kDa Human Cartilage Glycoprotein) (P36222 22-383): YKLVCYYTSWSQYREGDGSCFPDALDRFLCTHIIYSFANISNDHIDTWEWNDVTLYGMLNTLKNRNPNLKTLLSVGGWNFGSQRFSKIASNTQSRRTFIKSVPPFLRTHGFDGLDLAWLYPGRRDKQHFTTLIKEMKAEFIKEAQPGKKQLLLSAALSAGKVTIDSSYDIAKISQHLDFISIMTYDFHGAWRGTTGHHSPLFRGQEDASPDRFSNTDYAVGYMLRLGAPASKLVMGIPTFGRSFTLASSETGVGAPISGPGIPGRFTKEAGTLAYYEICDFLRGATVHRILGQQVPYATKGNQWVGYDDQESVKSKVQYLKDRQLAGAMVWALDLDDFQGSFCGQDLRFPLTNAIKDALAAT
Protocol: The affinities of non-covalent complexes between ChOS and HC gp-39 were analysed making use of the change of the intrinsic tryptophan fluorescence of the protein under binding conditions. The change of fluorescence intensity is caused by ligand-induced changes of the solvent cover of tryptophan residues and positively correlated with the sugar concentration.
HC gp-39 was dissolved in 25 mM Tris-HCl buffer pH 7.4 containing 1 mM dithiothreitol to a final concentration of 1.00 μM (protein solution). Different concentrations of homologues were prepared in 25 mM Tris-HCl buffer pH 7.4 containing 1 mM dithiothreitol (sugar solution). […] The fluorescence was read for each reaction in a Perkin-Elmer LS SOB fluorescence spectrometer (Perkin-Elmer, Überlingen, Germany). […] Each reaction was measured in triplicate.
From the row fluorescence data the fluorescence of the blank was subtracted. F-F0 was plotted versus the concentration of the homologue and the data were fitted by non-linear regression to a one-site saturation model employing SigmaPlot® software to obtain binding isotherms. y=Bmax*x/(Kd+x) Bmax: fluorescence intensity for a saturated binding domain of HC gp-39 Kd: dissociation constant.

For `CC(=O)N[C@H]1[C@H](O[C@H]2[C@H](O)[C@@H](NC(C)=O)C(O)O[C@@H]2CO)O[C@H](CO)[C@@H](O[C@@H]2O[C@H](CO)[C@@H](O)[C@H](O)[C@H]2NC(C)=O)[C@@H]1O` (stereo partly drawn) [Homologue A3], the “Mass calc (HPIEC homologue)” value ([1]; GPC, HPIEC and MALDI-TOF) was 30 μg, the concentration at 3 weeks ([1]; human, serum, oral, 1.8 g daily (ChOS mixture), blood sample after 3 weeks of ChOS consumption, GPC, HPIEC and MALDI-TOF, read-out: Conc (HPIEC homologue)) was 4000 ng/mL and the IC50 (Chitinase A [2]) was 219 µM.
In the case of `NC1C(OC2C(CO)OC(OC3C(CO)OC(OC4C(CO)OC(OC5C(CO)OC(OC6C(CO)OC(OC7C(CO)OC(OC8C(CO)OC(OC9C(CO)OC(OC%10C(CO)OC(OC%11C(CO)OC(OC%12C(CO)OC(O)C(N)C%12O)C(N)C%11O)C(N)C%10O)C(N)C9O)C(N)C8O)C(N)C7O)C(N)C6O)C(N)C5O)C(N)C4O)C(N)C3O)C(N)C2O)OC(CO)C(O)C1O` (stereo not drawn) [Homologue D12], the “blocking of chitinase activity” value (Chitinase A [2]) is reported as “poor blockers”.
With `CC(=O)N[C@H]1[C@H](O[C@H]2[C@H](O)[C@@H](NC(C)=O)C(O)O[C@@H]2CO)O[C@H](CO)[C@@H](O)[C@@H]1O` (stereo partly drawn) [Homologue A2] the “Mass calc (HPIEC homologue)” value ([1]; GPC, HPIEC and MALDI-TOF) was 270 μg, the “Conc (HPIEC homologue)” value ([1]; blood sample after 3 weeks of ChOS consumption, GPC, HPIEC and MALDI-TOF) was 39 μg/mL and the “oligomers observed in blood sample” value ([1]; post 1 week of ChOS consumption, 1.8 g daily) was “traces”.
With `CC(=O)N[C@H]1[C@H](O[C@H]2[C@H](O)[C@@H](NC(C)=O)[C@H](O[C@H]3[C@H](O)[C@@H](NC(C)=O)C(O)O[C@@H]3CO)O[C@@H]2CO)O[C@H](CO)[C@@H](O[C@@H]2O[C@H](CO)[C@@H](O[C@@H]3O[C@H](CO)[C@@H](O[C@@H]4O[C@H](CO)[C@@H](O)[C@H](O)[C@H]4NC(C)=O)[C@H](O)[C@H]3NC(C)=O)[C@H](O)[C@H]2NC(C)=O)[C@@H]1O` (stereo partly drawn) [Homologue A6] the “cleavage by Chitinase A” value (Chitinase A [3]) was “cleaved”.
For `N[C@H]1[C@H](O[C@H]2[C@H](O)[C@@H](N)[C@H](O[C@H]3[C@H](O)[C@@H](N)[C@H](O[C@H]4[C@H](O)[C@@H](N)[C@H](O[C@H]5[C@H](O)[C@@H](N)[C@H](O[C@H]6[C@H](O)[C@@H](N)C(O)O[C@@H]6CO)O[C@@H]5CO)O[C@@H]4CO)O[C@@H]3CO)O[C@@H]2CO)O[C@H](CO)[C@@H](O)[C@@H]1O` (stereo partly drawn) [Homologue D6], the “blocking of chitinase activity” value (Chitinase A [2]) was “poor blockers”, the IC50 (Chitinase A [2]; pH 7.4, 37° C., 10 min, 4-MU-A3 substrate, NB = no blocking found, read-out: IC50) was 1980 µM and the “dissociation constant” value [4] was “μmolar range”.
With `NC1C(OC2C(CO)OC(OC3C(CO)OC(OC4C(CO)OC(OC5C(CO)OC(OC6C(CO)OC(OC7C(CO)OC(OC8C(CO)OC(OC9C(CO)OC(O)C(N)C9O)C(N)C8O)C(N)C7O)C(N)C6O)C(N)C5O)C(N)C4O)C(N)C3O)C(N)C2O)OC(CO)C(O)C1O` (stereo not drawn) [Homologue D9] the “blocking of chitinase activity” value (Chitinase A [2]) was “poor blockers”.
